In publication PMC5834492, “Antimycobacterial drug discovery using Mycobacteria-infected amoebae identifies anti-infectives and new molecular targets” (Scientific Reports, 2018):
Read-outs that look alike come from different tables or passages of the source.

Key:
[1] = test system: D. discoideum GFP-ABD; settings: 10 µM
[2] = test system: M. marinum in A. castellanii; assay type: cell-based, Mycobacterium marinum; settings: 10 µM
[3] = test system: M. marinum in BV2 microglial cells; assay type: cell-based, Mycobacterium marinum; settings: for BV2 / M. marinum normalised growth, control=1.00, mean / hit in BV2/M. marinum assay True/False / anti-infective properties in microglial cell (BV2) infection assay: 10 µM
[4] = test system: Mtb H37Rv in THP-1; design: method as in Sorrentino et al, 2015; settings: ref Sorrentino et al, 2015, cited from earlier work; for Extracellular MIC90/ Inracellular MIC90: ratio
[5] = test system: M. marinum luxCDABE; assay type: cell-based, Mycobacterium marinum; settings: 10 µM
[6] = test system: M. marinum GFP; assay type: cell-based, Mycobacterium marinum; settings: for M. marinum GFP normalised growth, control=1.00, mean: 10 µM, antibiotic assay
[7] = test system: Mtb H37Rv; design: method as in Sorrentino et al, 2015; settings: ref Sorrentino et al, 2015; cited from earlier work
[8] = THP1 / Mtb H37Rv infection assay

SMILES	D. discoideum GFP-ABD normalised growth, control = 1.00, mean [1]	D. discoideum GFP-ABD normalised growth, control=1.00, mean [1]	A. castellanii / M. marinum normalised growth, control=1.00, mean [2]	A. castellanii/M. marinum normalised growth, control = 1.00, mean [2]	Hits A. castellanii/M. marinum assay True/False [2]	IC50 [3] [µM]	BV2 / M. marinum normalised growth, control=1.00, mean [3]	hit in BV2/M. marinum assay True/False [3]	Intracelullar MIC90 in THP-1 ([4]; Mtb H37Rv-infected THP1 cells) [µM]	Intracelullar MIC90 in THP-1 [4, 8] [µM]	Extracellular MIC90/ Inracellular MIC90 [4]	M. marinum luxCDABE normalised growth, control = 1.00, mean [5]	M. marinum luxCDABE normalised growth, control=1.00, mean [5]	M. marinum GFP normalised growth, control=1.00, mean [6]	Extracellular MIC90 [7] [µM]	anti-infective properties in A. castellanii infection assay [2]	anti-infective properties in microglial cell (BV2) infection assay [3]	antibiotic activity in M. marinum growth assay ([6]; broth)
CNc1nc(SCC(=O)N(C)Cc2ccc(Cl)s2)nc2ccccc12 [GSK1925843A]	1,10	1.10	1.12	1,12	FALSE	3.83	0.43	TRUE	16.65	16.65	0.34	0,00	0.00	0.70	5.6			
Clc1ccc(CCNc2cc(-c3ccccc3)nc3ncnn23)cc1 [GSK1955236A]		0.93	1.32			5.69	0.80			1.85	0.81		0.00	0.66	1.5			
Cc1ccccc1CN1CCC(O)(c2ccc(Cl)c(C(F)(F)F)c2)CC1 [GSK1985270A]		0.99	-0.06		TRUE	4.88	0.45	TRUE	0.21	0.21	20	0,00	0.00	0.09	4.2	strong anti-infective properties	strong anti-infective properties	
COc1ccc(-c2nc(-c3cccc(NC(=O)Cc4ccc(F)cc4)c3)no2)cc1OC [GSK2043267A]		1.18	0.86			6.69	0.77			0.21	17.62		0.00	0.97	3.7			strong antibiotic activity
Cc1n[nH]c(C)c1S(=O)(=O)NCc1nc(NCCCc2ccccc2)c2ccccc2n1 [GSK2059310A]		0.84	1.06			4.65	0.57			5.55	0.32		0.00	0.46	1.8			
CCCCS(=O)(=O)Nc1ccc2cnn(C)c2c1 [GSK3011724A]		0.99	-0.32		TRUE	4.44	0.40	TRUE	0.21	0.21	6.19		0.14	0.08	1.3	strong anti-infective properties	strong anti-infective properties	
Nc1cc(OCc2ccccc2)ccc1Nc1ccccc1 [GV187303X]		0.89	1.05			5.44	0.55			50	0.19		0.90	0.71	9.4			
Nc1nc(N)c2c(Sc3ccc4ccccc4c3)cccc2n1 [GW369335X]		0.97	0.37		TRUE	4.87	0.71	FALSE	5.55	5.55	1.57		0.20	0.14	8.7			
O=C(NC12CC3CC(CC(C3)C1)C2)c1cc2cc(Cl)ccc2[nH]1 [GW623128X]		1.06	0.51			4.92	0.66			0.07	14.28		0.00	0.86	1			
Cc1cc(OCC(=O)Nc2ccccc2)c2cc(Br)ccc2n1 [GW857165X]		0.90	0.83			3.52	0.72			16.65	0.2		0.00	0.81	3.3			
O=C(C=Cc1cccs1)N1CCN(Cc2ccc3c(c2)OCO3)CC1 [GW861072X]		0.68	0.54		FALSE	7.99	0.48	TRUE	0.61	0.61	0.49	0,00	0.00	0.05	0.3			
Nc1ccccc1Nc1ccc2c(c1)OCO2 [SB-435634]		1.14	1.04			11.4	0.63			5.55	0.32		1.00	1.08	1.8			
